{
  "source": "patent US20230173089A1",
  "about": "“Q-ER PEPTIDE” (Biotempt B.V., priority 2019, published 2023)",
  "key": {"[1]": {"tested_on": "colonic inflammation induced by dextran sulfate sodium (DSS)", "details": "Gln supplementation; cited from earlier work"}, "mTOR": {"tested_on": "mTOR", "details": "cited from earlier work; for activity as activators of mTOR or inhibitors of autophagy compared with other amino acids: alone or in combination"}, "[2]": {"tested_on": "healthy volunteers given E. coli endotoxin", "details": "cited from earlier work"}, "[3]": {"tested_on": "high-dose lipopolysaccharide induced inflammation", "details": "previous study; cited from earlier work"}, "[4]": {"tested_on": "allogenic kidney transplantation recipients", "details": "50 mg/kg twice daily i.p.; cited from earlier work"}, "[5]": {"tested_on": "male C57B1/6N mice with renal ischemia/reperfusion injury", "details": "cited from earlier work"}, "[6]": {"tested_on": "Wistar rats with hemorrhagic shock", "test": "hemorrhagic shock and resuscitation in rats (Example 15, SIRS)", "format": "in vivo, rat", "details": "single injection 30 minutes after induction of hemorrhagic shock", "protocol": "Severe hemorrhagic shock followed by resuscitation induces a massive inflammatory response, which may culminate into systemic inflammatory response syndrome, multiple organ dysfunction syndrome and finally death. Treatments that effectively prevent this inflammation are limited so far. […] Considering this powerful anti-inflammatory effect, it was investigated whether administration of 0.5 ml i.p. of synthetic heptapeptide SEQ ID NO:5 (AQGVAPG), SEQ ID NO:6 (LQGVAPG), SEQ ID NO:7 (AQGVLPG), SEQ ID NO:8 (LQGVLPG), dissolved in 0.9% NaCl at a concentration of 25 mg/ml, or vehicle (0.9% NaCl), respectively, during the SIRS-phase of hemorrhagic shock, is able to attenuate the inflammatory response associated with this condition.\nHemorrhagic shock is induced in groups of 6 rats for 60 minutes by blood withdrawal until a mean arterial pressure of 40 mmHg is reached. Thirty minutes after induction of hemorrhagic shock, rats received a single injection with one of synthetic heptapeptide SEQ ID NO:5 (AQGVAPG), SEQ ID NO:6 (LQGVAPG), SEQ ID NO:7 (AQGVLPG), SEQ ID NO:8 (LQGVLPG), or 0.9% NaCl solution, as control. Treatment with synthetic heptapeptide SEQ ID NO:5 (AQGVAPG), SEQ ID NO:6 (LQGVAPG), SEQ ID NO:7 (AQGVLPG), SEQ ID NO:8 (LQGVLPG) prevents systemic release of TNF-α and IL-6 and is associated with reduced TNF-α, IL-6 and E-selectin mRNA transcript levels in the liver, with reduced neutrophil infiltration into the liver and is associated with reduced liver damage.\nAnimals. Adult male specific pathogen-free Wistar rats weighing 350-400 g are used. Rats are housed under barrier conditions at 25° C. with a twelve-hour light/dark cycle, and are allowed food and water ad libitum. The experimental protocol adheres to the rules laid down in national law that serves the implementation of “Guidelines on the protection of experimental animals” by the Council of Europe (1986), Directive 86/609/EC. hCG-related synthetic oligopeptides. Rats are food deprived overnight before the start of the experiment, but are allowed water ad libitum. Rats are anesthetized using a mixture of N2 O/O2 /isoflurane (Pharmachemie B.V., Haarlem, The Netherlands). Body temperature is continuously maintained at 37.5° C. by placing the rats on a thermo controlled “half-pipe” (UNO, Rotterdam, The Netherlands). Endotracheal intubation is performed, and rats are ventilated at 60 breaths per minute with a mixture of N2 O/O2 /isoflurane. Polyethylene tubes (PE-50, Becton Dickinson; St. Michielsgestel, The Netherlands) are flushed with heparin and placed via the right carotid artery in the aorta and in the right internal jugular vein. A 5 cm midline laparotomy is performed and a supra pubic catheter is inserted to monitor urine production. Hemorrhagic shock is induced by blood withdrawal, reducing the circulating blood volume until a mean arterial pressure (MAP) of 40 mmHg is reached. This level of hypotension is maintained for 60 minutes. Thirty minutes after the induction of hemorrhagic shock, rats received a single intravenous (IV) bolus injection of heptapeptide solution or vehicle. Sixty minutes after induction of hemorrhagic shock, rats are resuscitated by four times their shed blood volume over a period of 30 minutes to normalize the MAP, and monitored for another 120 minutes after which they are sacrificed. The rats receive no heparin before or during the experiment. Sham animals are subjected to the same surgical procedure as the hemorrhagic shock animals, but without blood withdrawal and administration of heptapeptide."}, "[7]": {"tested_on": "non-obese diabetic (NOD) mouse", "test": "type 1 diabetes development in NOD mice", "format": "in vivo", "details": "250 µg i.p. three times per week, female NOD mice from 14 weeks, max five weeks", "description": "The non-obese diabetic (NOD) mouse spontaneously develops type 1 diabetes (T1D) and has served as a model for understanding the genetic and immunological basis, and treatment, of T1D. NOD mice are used in these studies. Most diabetic NOD mice suffer from insulin deficiency diabetes, with the underlying cause of the pancreatic beta-cell loss or destruction most likely a result of an inflammatory process in the micro-vasculature surrounding endocrine beta-cell tissues and genetically accelerated autoimmunity is suspected. Diabetes is assessed by measurement of the venous blood glucose level using an Abbott Medisense Precision glucometer. Mice are considered diabetic after two consecutive glucose measurements ≥11 mmol/l (200 mg/dl). Onset of diabetes is dated from the first consecutive reading of ≥11 mmol/l. In vivo treatment: groups of 14 weeks-old female NOD mice (n=12 per group) are treated with synthetic peptide SEQ ID NO:5 (AQGVAPG), SEQ ID NO:6 (LQGVAPG), SEQ ID NO:7 (AQGVLPG), SEQ ID NO:8 (LQGVLPG) or vehicle (PBS), respectively. Treatment is done by injecting 250 µg peptide diluted in PBS three times per week intraperitoneally (i.p.). Control mice are treated with PBS only. The treatment is discontinued when all PBS treated NOD mice in the experiment have developed diabetes. This is generally at the age of 19 weeks. The peptide and PBS treatments are done for a maximum of five weeks. In instances of hyperglycaemia of ≥20 mmol/l the mice are killed to avoid prolonged discomfort. The remainder mice are kept alive up to the age of 35 weeks without any further treatment."}, "[8]": {"tested_on": "murine polymicrobial sepsis model", "details": "cited from earlier work"}, "[9]": {"tested_on": "Streptozotocin-induced diabetic rats", "test": "renal function and urinary protein leakage in streptozotocin-induced diabetic rats", "format": "in vivo, rat", "details": "140 minutes i.v. infusion, 5 nmol x min(-1) x kg(-1) body wt", "protocol": "Acute effects of 140 minutes i.v. infusion of heptapeptide with SEQ ID NO:8 (LQGVLPG; 5 nmol x min(-1) x kg(-1) body wt) on renal function and urinary protein leakage are studied in anesthetized diabetic male rats two weeks after streptozotocin injection without insulin treatment. Streptozotocin-induced diabetic rats are studied with (N = 12) and without heptapeptide (N = 11) treatment. The two groups show a similarly elevated blood glucose concentration during the study. Age-matched normal rats serve as controls (N = 5). Glomerular filtration rate (GFR) is measured by inulin clearance in the basal state and during a 60-minute glycine infusion (0.22 mmol x min(-1) x kg(-1) body wt)-resembling a protein load challenge-to test the renal functional reserve in all three groups.\nIn the basal state, the non-heptapeptide-treated diabetic rats display increased GFR and increased total protein leakage when compared with normal rats. Whereas normal rats respond to glycine infusion with an increase in GFR, no increase occurs in diabetic rats not treated with heptapeptide. In diabetic rats given heptapeptide, this reduces the initial glomerular hyperfiltration prior to glycine infusion. […] Thus, short-term infusion of heptapeptide has beneficial effects on protein leakage and hyperfiltration and improves the renal functional reserve in rats."}},
  "note": "Read-outs that look alike come from different tables or passages of the source.",
  "data": [
    {"compound": "NC(=O)CC[C@H](N)C(=O)O", "note": "[L-Glutamine]", "values": [
      {"measurement": "degree of microscopic injury induced by dextran sulfate sodium (DSS)", "setting": "[1]", "value": "attenuated"},
      {"measurement": "activity as activators of mTOR or inhibitors of autophagy compared with other amino acids", "setting": "mTOR", "value": "more potent"},
      {"measurement": "mTOR associated autophagic inhibitory effects on human cells", "setting": "mTOR; human cells", "value": "most prominent"}
    ]},
    {"compound": "CC(C)[C@H](N)C(=O)O", "note": "[L-Valine]", "values": [
      {"measurement": "activity as activators of mTOR or inhibitors of autophagy compared with other amino acids", "setting": "mTOR", "value": "more potent"}
    ]},
    {"compound": "AQGV (Immunomodulatory peptide) [SEQ ID NO:2, synthetic linear glutamine-containing tetrapeptide derived from beta-human chorionic gonadotropin]", "values": [
      {"measurement": "endotoxin induced increase in plasma levels of IL-6, IL-8, IL-1RA, MCP-1, MIP-1α, MIP-1β and VCAM-1", "setting": "[2]; 180 mg/kg (highest dose)", "value": "significant attenuation"},
      {"measurement": "fever and flu-like symptoms", "setting": "[2]; highest dose (180 mg/kg)", "value": "reduced"},
      {"measurement": "endotoxin induced increase in plasma levels of IL-6, IL-8, IL-1RA, MCP-1, MIP-1α, MIP-1β and VCAM-1", "setting": "[2]; lower doses (30, 90 mg/kg)", "value": "not with the lower doses tested"},
      {"measurement": "inflammatory response and mortality following high-dose lipopolysaccharide", "setting": "[3]", "value": "inhibit"},
      {"measurement": "renal function and allograft survival", "setting": "[4]", "value": "improved"},
      {"measurement": "survival after IRI", "setting": "[5]; 20-50 mg/kg twice daily i.p. for four days, started 24 hours after IRI", "value": "markedly improved"},
      {"measurement": "CTGF up-regulation (marker of post-ischemic fibrosis) in renal tissue", "setting": "[5]; four weeks after IRI", "value": "significantly less"},
      {"measurement": "tubular epithelial cell proliferation", "setting": "[5]; mouse, in vivo", "value": "significantly enhanced"},
      {"measurement": "acute tubular injury", "setting": "[5]; two days after IRI", "value": "diminished"}
    ]},
    {"compound": "AQGVAPG (Immunomodulatory peptide) [SEQ ID NO:5]", "values": [
      {"measurement": "TNF-α, IL-6 and E-selectin mRNA transcript levels in the liver", "setting": "[6]", "value": "reduced"},
      {"measurement": "liver damage", "setting": "[6]", "value": "reduced"},
      {"measurement": "neutrophil infiltration into the liver", "setting": "[6]", "value": "reduced"},
      {"measurement": "systemic release of TNF-α and IL-6", "setting": "[6]", "value": "prevents"},
      {"measurement": "beta-cell failure with diabetes development (occurrence of diabetes after the age of 17 weeks)", "setting": "[7]", "value": "significantly reduces"}
    ]},
    {"compound": "AQGVLPG (Immunomodulatory peptide) [SEQ ID NO:7]", "values": [
      {"measurement": "TNF-α, IL-6 and E-selectin mRNA transcript levels in the liver", "setting": "[6]", "value": "reduced"},
      {"measurement": "liver damage", "setting": "[6]", "value": "reduced"},
      {"measurement": "neutrophil infiltration into the liver", "setting": "[6]", "value": "reduced"},
      {"measurement": "systemic release of TNF-α and IL-6", "setting": "[6]", "value": "prevents"},
      {"measurement": "beta-cell failure with diabetes development (occurrence of diabetes after the age of 17 weeks)", "setting": "[7]", "value": "significantly reduces"}
    ]},
    {"compound": "LQGV (Immunomodulatory peptide) [SEQ ID NO:1, synthetic linear glutamine-containing tetrapeptide derived from beta-human chorionic gonadotropin]", "values": [
      {"measurement": "inflammatory response and mortality following high-dose lipopolysaccharide", "setting": "[3]", "value": "inhibit"},
      {"measurement": "survival during the first 5 days after moderate cecal ligation and puncture", "setting": "[8]; 5 mg/kg bodyweight, control 20%", "value": 50, "unit": "%"},
      {"measurement": "survival in severe cecal ligation and puncture model", "setting": "[8]; 5 mg/kg combined with fluid resuscitation and antibiotics, fluid resuscitation and antibiotics alone 30%", "value": 70, "unit": "%"},
      {"measurement": "cytokine and E-selectin levels in peritoneal lavage fluid, lungs and plasma", "setting": "[8]; moderate cecal ligation and puncture, 5 mg/kg", "value": "reduced"},
      {"measurement": "pulmonary nuclear factor-κB activation and pulmonary damage", "setting": "[8]; mouse, in vivo", "value": "reduced"}
    ]},
    {"compound": "LQGVAPG (Immunomodulatory peptide) [SEQ ID NO:6]", "values": [
      {"measurement": "TNF-α, IL-6 and E-selectin mRNA transcript levels in the liver", "setting": "[6]", "value": "reduced"},
      {"measurement": "liver damage", "setting": "[6]", "value": "reduced"},
      {"measurement": "neutrophil infiltration into the liver", "setting": "[6]", "value": "reduced"},
      {"measurement": "systemic release of TNF-α and IL-6", "setting": "[6]", "value": "prevents"},
      {"measurement": "beta-cell failure with diabetes development (occurrence of diabetes after the age of 17 weeks)", "setting": "[7]", "value": "significantly reduces"}
    ]},
    {"compound": "LQGVLPG (Immunomodulatory peptide) [SEQ ID NO:8]", "values": [
      {"measurement": "TNF-α, IL-6 and E-selectin mRNA transcript levels in the liver", "setting": "[6]", "value": "reduced"},
      {"measurement": "liver damage", "setting": "[6]", "value": "reduced"},
      {"measurement": "neutrophil infiltration into the liver", "setting": "[6]", "value": "reduced"},
      {"measurement": "systemic release of TNF-α and IL-6", "setting": "[6]", "value": "prevents"},
      {"measurement": "beta-cell failure with diabetes development (occurrence of diabetes after the age of 17 weeks)", "setting": "[7]", "value": "significantly reduces"},
      {"measurement": "initial glomerular hyperfiltration (GFR) prior to glycine infusion", "setting": "[9]", "value": "reduces"},
      {"measurement": "renal functional reserve (GFR response to glycine infusion)", "setting": "[9]", "value": "restores normal"},
      {"measurement": "total protein leakage compared with rats not given heptapeptide", "setting": "[9]", "value": "lower"}
    ]}
  ]
}
